Measurements as given in the supplement of paper PMC10307832.

What was measured:
Assay in all cases: relative viability (nuclei count vs DMSO), 5 days (fraction); higher = more cells survive
GSK-J4 + Luminespib = compound: CCOC(=O)CCNc1cc(N2CCc3ccccc3CC2)nc(-c2ccccn2)n1 [GSK-J4] + CCNC(=O)c1noc(-c2cc(C(C)C)c(O)cc2O)c1-c1ccc(CN2CCOCC2)cc1 [Luminespib] (partner 0.01 µM)
Procedure, shortened: (§1)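 Lung cancer cell lines, seeded in 1536-well plates, were treated the following day by pin tool with a single drug or with five library-drug doses (not always all listed) in √10 steps on top of a fixed anchor-drug dose. Cells were fixed and nuclei stained in one step after 5 days, and nuclei were counted. Relative viability is the nuclei count for treated wells divided by that for vehicle wells, reported as medians of duplicate plates.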

GSK-J4 + Phenformin = compound: CCOC(=O)CCNc1cc(N2CCc3ccccc3CC2)nc(-c2ccccn2)n1 [GSK-J4] + N=C(N)NC(=N)NCCc1ccccc1 [Phenformin] (partner 250 µM)
Procedure, shortened: as §1

GSK-J4 + Decitabine = compound: CCOC(=O)CCNc1cc(N2CCc3ccccc3CC2)nc(-c2ccccn2)n1 [GSK-J4] + Nc1ncn([C@H]2C[C@H](O)[C@@H](CO)O2)c(=O)n1 [Decitabine] (partner 2 µM)
Procedure, shortened: as §1

AZ3146 + Linsitinib = compound: CN1CCC(CC1)OC2=CC(=C(C=C2)NC3=NC=C4C(=N3)N(C(=O)N4C)C5CCCC5)OC [AZ3146] + C[C@]1(O)C[C@@H](c2nc(-c3ccc4ccc(-c5ccccc5)nc4c3)c3c(N)nccn32)C1 [Linsitinib] (partner 1 µM)
Procedure, shortened: as §1

Cell Line | relative viability (GSK-J4 + Luminespib; first compound 0.5 µM) | relative viability (GSK-J4 + Luminespib; first compound 1.581 µM) | relative viability (GSK-J4 + Luminespib; first compound 5 µM) | relative viability (GSK-J4 + Luminespib; first compound 15.81 µM) | relative viability (GSK-J4 + Luminespib; first compound 50 µM) | relative viability (GSK-J4 + Phenformin; first compound 0.5 µM) | relative viability (GSK-J4 + Phenformin; first compound 1.581 µM) | relative viability (GSK-J4 + Phenformin; first compound 5 µM) | relative viability (GSK-J4 + Phenformin; first compound 15.81 µM) | relative viability (GSK-J4 + Phenformin; first compound 50 µM) | relative viability (GSK-J4 + Decitabine; first compound 0.5 µM) | relative viability (GSK-J4 + Decitabine; first compound 1.581 µM) | relative viability (GSK-J4 + Decitabine; first compound 5 µM) | relative viability (GSK-J4 + Decitabine; first compound 15.81 µM) | relative viability (GSK-J4 + Decitabine; first compound 50 µM) | relative viability (AZ3146 + Linsitinib; first compound 0.08 µM) | relative viability (AZ3146 + Linsitinib; first compound 0.253 µM) | relative viability (AZ3146 + Linsitinib; first compound 0.8 µM) | relative viability (AZ3146 + Linsitinib; first compound 2.53 µM) | relative viability (AZ3146 + Linsitinib; first compound 8 µM)
NCI-H23 | 0.212 | 0.197 | 0.215 | 0.209 | 0.201 | 0.71 | 0.723 | 0.627 | 0.648 | 0.671 | 0.261 | 0.271 | 0.303 | 0.279 | 0.282 | 0.584 | 0.563 | 0.616 | 0.656 | 0.605
NCI-H441 | 0.303 | 0.298 | 0.476 | 0.394 | 0.308 | 0.819 | 0.852 | 0.641 | 0.805 | 0.809 | 0.203 | 0.279 | 0.205 | 0.217 | 0.271 | 0.479 | 0.525 | 0.474 | 0.635 | 0.621
NCI-H2009 | 1.05 | 0.918 |  | 0.938 | 0.407 | 0.456 | 0.419 | 0.354 | 0.341 | 0.222 | 0.348 | 0.358 | 0.313 | 0.319 | 0.297 | 1.09 | 1.22 | 1.22 | 1.27 | 1.16
NCI-H2170 | 0.576 | 0.668 | 0.81 | 0.362 | 0.609 | 0.38 | 0.352 | 0.341 | 0.387 | 0.275 | 0.453 | 0.422 | 0.459 | 0.463 | 0.464 |  |  |  |  | 
NCI-H1299 |  |  |  |  |  |  |  |  |  |  |  |  |  |  |  | 0.941 | 0.981 | 0.964 | 0.99 | 1.03
HCC-78 |  |  |  |  |  | 0.87 | 0.731 | 0.946 | 0.588 | 0.528 | 0.726 | 0.633 | 0.71 | 0.549 | 0.621 |  | 0.476 | 0.416 | 0.532 | 0.522
NCI-H3122 | 0.0789 | 0.067 | 0.119 | 0.0946 | 0.121 | 0.37 |  | 0.305 | 0.289 | 0.264 | 0.476 | 0.459 | 0.454 | 0.345 | 0.415 | 1.02 | 1.06 | 1.03 | 1.04 | 1.06
NCI-H2085 | 0.477 | 0.394 | 0.419 | 0.41 | 0.309 | 0.724 | 0.674 | 0.671 | 0.508 | 0.582 | 0.511 | 0.501 | 0.512 | 0.548 | 0.491 | 0.898 | 0.848 | 0.956 | 0.912 | 0.727
HCC-366 |  |  |  |  |  | 0.574 | 0.579 |  | 0.482 | 0.59 | 0.33 | 0.283 |  | 0.283 | 0.277 | 0.674 | 0.598 | 0.593 | 0.637 | 0.855
HCC-827 | 0.566 | 0.629 | 0.832 | 0.405 | 0.526 | 0.366 | 0.383 | 0.426 | 0.355 | 0.398 | 0.345 | 0.31 | 0.482 | 0.292 | 0.31 | 0.907 | 0.889 | 0.946 | 1.02 | 1.01
Calu-6 |  |  |  |  |  |  |  |  |  |  |  |  |  |  |  | 0.925 | 0.925 | 0.928 | 0.948 | 0.971
HOP-62 | 0.877 | 0.937 | 0.917 | 0.794 | 0.396 | 0.612 | 0.548 | 0.558 | 0.665 | 0.528 | 0.257 | 0.233 | 0.2 | 0.193 | 0.225 | 1.05 | 0.978 | 1.06 | 1.06 | 1.05
NCI-H2228 | 0.189 | 0.124 | 0.152 | 0.143 | 0.124 | 0.331 | 0.205 | 0.42 | 0.244 | 0.355 |  |  |  |  |  | 1 | 0.867 | 0.657 | 0.628 | 0.774
CAL-12T | 0.83 | 0.549 | 0.244 | 0.205 | 0.518 | 0.702 | 0.549 | 0.532 | 0.554 | 0.42 |  |  |  |  |  | 0.867 | 0.756 | 0.824 | 0.885 | 0.932
NCI-H1563 | 0.513 | 0.484 | 0.477 | 0.502 | 0.526 | 0.665 | 0.71 | 0.607 | 0.56 | 0.656 |  |  |  |  |  | 1.09 | 1.36 | 1.15 | 1.24 | 1.35
EBC-1 |  |  |  |  |  |  |  |  |  |  |  |  |  |  |  | 0.906 | 0.707 | 0.899 | 0.879 | 0.991
NCI-H1650 | 0.17 | 0.222 | 0.228 | 0.153 | 0.231 | 0.512 | 0.415 | 0.375 | 0.4 | 0.408 | 0.522 | 0.343 | 0.423 | 0.416 | 0.294 |  |  |  |  | 
NCI-H1648 |  |  |  |  |  |  |  |  |  |  | 0.569 |  | 0.718 |  | 0.482 |  |  |  |  | 
NCI-H1703 |  |  |  |  |  |  |  |  |  |  |  |  |  |  |  | 0.824 | 1.15 | 0.637 | 0.872 | 0.924
A549 |  |  |  |  |  | 0.146 | 0.156 | 0.0648 | 0.0756 | 0.103 | 0.241 | 0.205 | 0.246 | 0.244 | 0.282 | 0.653 | 0.653 | 0.593 | 0.571 | 0.51
NCI-H522 | 1.22 | 0.944 | 1.2 | 0.612 | 0.587 | 0.64 | 0.656 | 0.595 | 0.543 | 0.588 | 0.776 | 0.611 |  | 0.573 | 0.651 |  |  |  |  | 
NCI-H1623 | 0.556 | 0.427 | 0.677 | 0.432 | 0.283 | 0.597 | 0.457 | 0.623 | 0.398 | 0.545 |  |  |  |  |  |  |  |  |  | 
SW 900 | 0.195 | 0.156 | 0.155 | 0.177 | 0.154 | 0.581 | 0.592 | 0.617 | 0.402 | 0.246 | 0.376 | 0.354 | 0.469 | 0.48 | 0.343 |  |  |  |  | 
